Results published in patent US9556169B2, “Compounds and compositions for the treatment of parasitic diseases” (NOVARTIS AG, priority 2012, dated 2017).
Like-named read-outs stand apart in the source and are kept apart here.

Assays:
Format in all cases: cell-based
[1] = tested on: Plasmodium yoelii (17XNL) sporozoites; assay: Liver stage P. yoelii sporozoite invasion assay in HepG2-A16-CD81EGFP cells
Description: Assay for Proliferation of Parasite in Infected Liver Cells
Compounds of the invention can be assayed to measure their capacity to inhibit proliferation of parasites in liver cells. The proliferation is quantified by determine the number of infected cells by immunofluorescence.
Due to the difficulty of successfully infecting immortalized human liver cell lines with the human malaria sporozoites (liver-stage parasite), rodent malaria sporozoites from Plasmodium yoelii (17XNL) and P. berghei (ANKA) are the preferred surrogate. Sporozoites are obtained from Anopheles stephensi mosquitoes supplied by the New York University Insectary, which ships the malaria-infected mosquitoes 10-13 days following the ingestion of an infective blood meal.
A transgenic HepG2 cell line expressing the tetraspanin CD81 receptor (HepG2-A16-CD81^EGFP) is used to increase the infectivity rate of rodent-malaria sporozoites into human cells. HepG2-A16-CD81^EGFP cells are stably transformed to express a GFP-CD81 fusion protein. A continuous in vitro culture of this line was maintained at 37° C. in 4% CO2 in complete media (CM) which contains: DMEM (Invitrogen, Carlsbad, USA) supplemented with 10% FCS, 0.29 mg/ml glutamine, 100 units penicillin and 100 μg/ml streptomycin (SigmaAldrich, USA).
Liver Stage P. yoelii Sporozoite Invasion Assay
Twenty to twenty-six hours prior to sporozoite infection, 7.5×10^3 HepG2-A16-CD81^EGFP cells are seeded into 384-well plates (Aurora 384 IQ-EB black plates with clear bottoms; 50 μl of 1.5×10^5 cells/ml in CM). These plates are incubated at 37° C. with 4% CO2 overnight. Two hours prior to infection, 50 nl of compound dissolved in DMSO (0.1% final DMSO concentration per well) were transferred with a PinTool (GNF Systems) into the assay plates (10 μM final concentration). A 1:3 serial dilution of atovaquone (10 μM at the highest final concentration) and wells treated only with DMSO were used as positive and negative controls, respectively.
Freshly dissected salivary glands from infected mosquitoes were homogenized in a glass tissue grinder, filtered twice through Nylon cell strainers (40 μm pore size, BD Falcon) and counted using a hemocytometer. The assay plate with HepG2-A16-CD81^EGFP cells and compound were then infected with 8×10^3 sporozoitesper well and the plates are subjected to a centrifugal force of 650×g to pellet the sporozoites onto the liver cell monolayer. The assay plate is incubated at 37° C. for 2 hours to permit sporozoite invasion, then the media is aspirated from the media plate, and replaced with 50 μl CM (containing a 5× concentration of penicillin/streptomycin; 500 units penicillin and 0.5 mg streptomycin per ml) per well. 50 nl of compound is re-introduced by PinTool and the assay plate incubated for 48 hours at 37° C. before quantification of infected cells by immunofluorescence.
Atovaquone and uninfected wells were used as controls on each plate. Two replicate plates are tested for each assay.
After fixing the cells by addition of 12.5 μl of 20% solution of paraformaldehyde (EMS, Hatfield, USA) to each assay well (4% final formaldehyde concentration), membranes were permeabilized with 0.5% Triton-X-100 (Thermo Fisher Scientific) and EEFs were stained using a mouse polyclonal serum raised against the Plasmodium yoelii heat shock protein 70 (PyHSP70), a DyLight 649 goat anti-mouse IgG, Fc(gamma) fragment specific secondary antibody (Jackson Immuno Research, Cat#115-495-071) and the Hoechst 33342 nucleic acid dye (Invitrogen, Carlsbad, USA). Stained EEFs were then quantified using the Opera Confocal High Content Screening System (Perkin Elmer, Waltham, USA). Images were collected using a 20× objective lens (20×/0.45 NA, LWD Plan Fluor, Olympus) at a binning of 2, using a 365 nm Xeon arc lamp illumination to detect the Hoechst-labeled nuclei and 635 nm laser line to excite DyLight649-labeled parasites. The image resolution yielded was approximately 0.66 μm/pixel (˜0.43 μm 2/pixel). […]

[2] = tested on: P. falciparum (NF54 or 3D7 strain); assay: P. falciparum proliferation assay in infected human blood cells (SYBR Green); details: Plasmodium falciparum
Experimental: Assay for P. falciparum Proliferation in Infected Human Blood Cells
Compounds of the invention can be assayed to measure their capacity to inhibit proliferation of P. falciparum parasitemia in infected red blood cells. This parasite proliferation assay measures the increase in parasite DNA content using a DNA intercalating dye, SYBR Green® (INVITROGEN®) which has a high affinity for double stranded DNA.
NF54 or 3D7 P. falciparum strain is grown in complete culturing media until parasitemia reaches 3% to 8% with O+ human erythrocytes. […] 20 μl of screening media is dispensed into 384 well assay plates. 50 nl of compounds of the invention (in DMSO), including antimalarial controls (mefloquine, pyrimethamine and artemisinin), are then transferred into the assay plates, as well as DMSO alone to serve as a negative control for inhibition. Then 30 μl of a suspension of a NF54 or 3D7 P. falciparum infected erythrocytes in screening media is dispensed into the assay plates such that the final hematocrit is 2.5% with a final parasitemia of 0.3%. The plates are placed in a 37° C. incubator for 72 hours in a low oxygen environment containing 93% N2, 4% CO2, and 3% O2 gas mixture. 10 μl of lysis buffer (saponin, triton-X, EDTA) containing a 10× solution of SYBR Green I® in RPMI media is dispensed into the plates. The plates are lidded and kept at room temperature overnight for the lysis of the infected red blood cells. The fluorescence intensity is measured (excitation 425 nm, emission 530 nm) using the Envision™ system (Perkin Elmer). The percentage inhibition of 50%, EC50, is calculated for each compound.

[3] = tested on: Plasmodium berghei line expressing luciferase (Pb-luc) sporozoites; assay: Liver stage P. berghei luciferase proliferation assay in CD81-GFP-HepG2 cells; details: values marked * in Table 2, CD81-GFP-HepG2 cells, 48 h, luminescence, read-out: EC50 (nM), P. berghei luciferase Proliferation Assay
Experimental: Liver Stage P. berghei Luciferase Proliferation Assay
CD81-GFP-HepG2 cells (obtained from the lab of Dominique Mazier) were seeded into GNF custom Greiner plates (1536-well, white, TC-treated, solid bottom). A final density of 3000 cells/well was achieved by dispensing 5 ul per well of a 600,000 cells/mL resuspended in Assay Media (AM; phenol-red free DMEM, 2% FBS, 5×PSG) via a MicroFlo (Biotek; 5 ul dispense cassette). The seeded assay plates were incubated overnight at 37° C. in an incubator with 5% CO2. The following day, a 10 nL volume of compound was transferred acoustically (ECHO 525, Labcyte Inc.) to each well in the assay plate. Sporozoite forms of a Plasmodium berghei line expressing luciferase (Pb-luc) were dissected and purified from infected Anopheles stephensi mosquitoes (provided by the NYU insectary) as previously described by Meister et al. (Science, 2011). Purified sporozoites (spz) were stored at 250 spz/uL in chilled PBS supplemented with 3% BSA. 3 uL of Pb-luc spz solution was dispensed to each assay well using a Bottlevalve equipped with a custom, single-tip dispense head (GNF Systems). Assay plates were centrifuged at 330×g for 3 minutes to pellet the spz, then the assay plates were returned to the 37° C. incubator for 48 h. Luciferase signal, which corresponds with parasite proliferation, was detected by adding 2 uL of BrightGlo (Promega) to each well using the MicroFlo (Biotek; 1 ul cassette). Luminescence was immediately measured on an Envision MultiLabel Plate Reader (PerkinElmer).

[4] = read-out: EC50, P. yoelii Sporozoite Invasion Assay
[5] = read-out: EC50, P. falciparum Proliferation Assay
[6] = Erythrocyte, infected human erythrocytes, 72 hours, SYBR Green fluorescence, read-out: EC50 (nM), inhibitory efficacy in delaying P. falciparum proliferation in infected human blood cells
[7] = values without * in Table 2, HepG2-A16-CD81EGFP liver cells, 48 hours, immunofluorescence, read-out: EC50 (nM), P. yoelii Sporozoite Invasion Assay

Compound: CN(C(=O)c1ccn2ncc(-c3ccc(C(F)(F)F)cc3)c2c1)c1ccc(C#N)cc1 [Example 1, N-(4-cyanophenyl)-N-methyl-3-(4-(trifluoromethyl)phenyl)pyrazolo[1,5-a]pyridine-5-carboxamide]
- EC50 [1, 4]: < 10 nM

Compound: CN(C(=O)c1ccn2ncc(-c3ccc(C(N)=O)cc3)c2c1)c1ccc(C#N)cc1 [Example 19, 3-(4-carbamoylphenyl)-N-(4-cyanophenyl)-N-methylpyrazolo[1,5-a]pyridine-5-carboxamide]
- EC50 [1, 4]: < 10 nM

Compound: CN(C(=O)c1ccn2ncc(-c3ccc(C(N)=O)cc3)c2c1)c1ccc(C#N)cn1 [Example 32, 3-(4-carbamoylphenyl)-N-(5-cyanopyridin-2-yl)-N-methylpyrazolo[1,5-a]pyridine-5-carboxamide]
- EC50 [2, 5]: < 5 nM
- EC50 [1, 4]: < 10 nM

Compound: CNC(=O)c1ccc(-c2cnn3ccc(C(=O)N(C)c4ccc(C#N)cn4)cc23)cc1 [Example 75, N-(5-cyanopyridin-2-yl)-N-methyl-3-(4-(methylcarbamoyl)phenyl)pyrazolo[1,5-a]pyridine-5-carboxamide]
- EC50 [2, 5]: < 5 nM
- EC50 [1, 4]: < 10 nM

Compound: CCN(C(=O)c1ccn2ncc(-c3ccc(C(=O)NC)cc3)c2c1)c1ccc(C#N)cn1 [Example 90, N-(5-Cyanopyridin-2-yl)-N-ethyl-3-(4-(methylcarbamoyl)phenyl)pyrazolo[1,5-a]pyridine-5-carboxamide]
- EC50 [2, 6]: 8 nM
- EC50 [1, 7]: 39 nM

Compound: CNC(=O)c1ccc(-c2cnn3ccc(C(=O)N(c4ccc(C#N)cn4)C(C)C)cc23)cc1 [Example 91, N-(5-cyanopyridin-2-yl)-N-isopropyl-3-(4-(methylcarbamoyl)phenyl)pyrazolo[1,5-a]pyridine-5-carboxamide]
- EC50 [2, 6]: 13 nM
- EC50 [1, 7]: 23 nM

Compound: CNC(=O)c1ccc(-c2cnn3ccc(C(=O)N(c4ccc(C#N)cn4)C4CC4)cc23)cc1 [Example 93, N-(5-Cyanopyridin-2-yl)-N-cyclopropyl-3-(4-(methylcarbamoyl)phenyl)pyrazolo[1,5-a]pyridine-5-carboxamide]
- EC50 [2, 6]: 6 nM
- EC50 [1, 7]: 10 nM

Compound: CNC(=O)c1ccc(-c2cnn3ccc(C(=O)N(C)c4ccc(C#N)cc4)cc23)cn1 [Example 97, N-(4-Cyanophenyl)-N-methyl-3-(6-(methylcarbamoyl)pyridin-3-yl)pyrazolo[1,5-a]pyridine-5-carboxamide]
- EC50 [2, 6]: 13 nM
- EC50 [1, 7]: 92 nM

Compound: CN(C(=O)c1ccn2ncc(-c3cnc(Cl)c(N)c3)c2c1)c1ccc(C#N)cn1 [Example 98, 3-(5-Amino-6-chloropyridin-3-yl)-N-(5-cyanopyridin-2-yl)-N-methylpyrazolo[1,5-a]pyridine-5-carboxamide]
- EC50 [2, 6]: 19 nM
- EC50 [1, 7]: 2060 nM

Compound: CNC(=O)c1ccc(-c2cnn3ccc(C(=O)N(C)c4ccc(Cl)cc4)cc23)cc1 [Example 99, N-(4-Chlorophenyl)-N-methyl-3-(4-(methylcarbamoyl)phenyl)pyrazolo[1,5-a]pyridine-5-carboxamide]
- EC50 [2, 6]: 1 nM
- EC50 [1, 7]: 15 nM

Compound: CN(C(=O)c1ccn2ncc(-c3ccc(C(N)=O)cc3)c2c1)c1ccc(Cl)cc1 [Example 100, 3-(4-Carbamoylphenyl)-N-(4-chlorophenyl)-N-methylpyrazolo[1,5-a]pyridine-5-carboxamide]
- EC50 [2, 6]: 9 nM
- EC50 [1, 7]: 20 nM

Compound: CCN(C(=O)c1ccn2ncc(-c3ccc(C(=O)NC)nc3)c2c1)c1ccc(F)cn1 [Example 159, N-ethyl-N-(5-fluoropyridin-2-yl)-3-(6-(methylcarbamoyl)pyridin-3-yl)pyrazolo[1,5-a]pyridine-5-carboxamide]
- EC50 [2, 6]: 56 nM
- EC50 [3]: 43 nM

Compound: CNC(=O)c1ccc(-c2cnn3ccc(C(=O)N(c4ccc(C(F)(F)F)cn4)C4CCC4)cc23)cc1 [Example 160, N-cyclobutyl-3-(4-(methylcarbamoyl)phenyl)-N-(5-(trifluoromethyl)pyridin-2-yl)pyrazolo[1,5-a]pyridine-5-carboxamide]
- EC50 [2, 6]: 4 nM
- EC50 [3]: 4 nM

Compound: CNC(=O)c1ccc(-c2cnn3ccc(C(=O)N(c4ccc(C(F)(F)F)cn4)C4CCC4)cc23)cn1 [Example 161, N N-cyclobutyl-3-(6-(methylcarbamoyl)pyridin-3-yl)-N-(5-(trifluoromethyl)pyridin-2-yl)pyrazolo[1,5-a]pyridine-5-carboxamide]
- EC50 [2, 6]: 68 nM
- EC50 [3]: 41 nM

Compound: CCN(C(=O)c1ccn2ncc(-c3ccc(C(=O)NC)cc3)c2c1)c1ccc(C#N)c(OCCO)n1 [Example 162, N-(5-cyano-6-(2-hydroxyethoxyl)pyridin-2-yl)-N-ethyl-3-(4-(methylcarbamoyl)phenyl)pyrazolo[1,5-a]pyridine-5-carboxamide]
- EC50 [2, 6]: 9 nM
- EC50 [3]: 8 nM

Compound: CNC(=O)c1ccc(-c2cnn3ccc(S(=O)(=O)N(C)c4ccc(C#N)cn4)cc23)cc1 [Example 163, 4-(5-(N-(5-Cyanopyridin-2-yl)-N-methylsulfamoyl)pyrazolo[1,5-a]pyridin-3-yl)-N-methyl benzamide]
- EC50 [2, 6]: 4 nM
- EC50 [3]: 2 nM
